Results from patent publication US9962369B2, “Methods and compositions for transdermal delivery” (SPRAYABLE HOLDINGS, INC., priority 2014, dated 2018).

Assay: Transdermal delivery of melatonin: plasma level of melatonin after applying composition to skin of a subject
Conditions: human, plasma, topical, 3 mg, Plasma level of melatonin; for concentration at 4 h / concentration at 4 hr: 4 hr after transdermal administration; for concentration at 8 h / concentration at 8 hr: 8 hr after transdermal administration; for concentration at 0 h / concentration at 0 hr: 0 hr after transdermal administration; for concentration at 1 h / concentration at 1 hr: 1 hr after transdermal administration; for concentration at 2 h / concentration at 2 hr: 2 hr after transdermal administration; for concentration at 0 hr / concentration at 1 hr / concentration at 2 hr / concentration at 4 hr / concentration at 8 hr: 0.30 mL applied to skin
[1] = Table 20 control, A− N/A, helper esters 0 mM, 2.0 mL applied
[2] = Tryptophan butyl ester hydrochloride 235.90 mM, 0.3 mL applied to skin
[3] = Tryptophan ethyl ester hydrochloride 260.47 mM, 0.3 mL applied to skin
[4] = Tryptophan isopropyl ester hydrochloride 247.52 mM, 0.3 mL applied to skin
[5] = Tyrosine isopropyl ester 269.50 mM
[6] = Tyrosine pentyl ester 243.25 mM
[7] = salt of tryptophan isopropyl ester, A− = AcO^−, 228.48 mM, 0.30 mL applied
[8] = salt of tryptophan isopropyl ester, A− = Benzoate ion, 189.98 mM, 0.30 mL applied
[9] = salt of tryptophan isopropyl ester, A− = Br^−, 220.92 mM, 0.30 mL applied
[10] = salt of tryptophan isopropyl ester, A− = Citrate ion, 159.67 mM, 0.30 mL applied

COc1ccc2[nH]cc(CCNC(C)=O)c2c1 [Melatonin]
2.1 ng/mL: concentration at 1 hr [5] | concentration at 2 hr [6] | concentration at 8 hr [6] | concentration at 4 h [7] | concentration at 1 h [10] | concentration at 8 h [10]
0 ng/mL: concentration at 0 h [2] | concentration at 0 h [3] | concentration at 0 hr [5] | concentration at 0 hr [6] | concentration at 0 hr (Tyrosine propyl ester 269.5 mM) | concentration at 0 h [7] | concentration at 0 h [8] | concentration at 0 h [9] | concentration at 0 h [10] | concentration at 0 h (salt of tryptophan isopropyl ester, A− = Cl^−, 247.52 mM, 0.30 mL applied)
1.9 ng/mL: concentration at 2 h [2] | concentration at 4 h [3] | concentration at 1 h [7]
2.6 ng/mL: concentration at 4 hr (Tyrosine propyl ester 269.5 mM) | concentration at 8 hr (Tyrosine propyl ester 269.5 mM) | concentration at 4 h [9] | concentration at 8 h [9]
2.4 ng/mL: concentration at 1 h [9] | concentration at 4 h [10]
2 ng/mL: concentration at 1 h [3] | concentration at 1 hr (Tyrosine propyl ester 269.5 mM) | concentration at 8 h [7] | concentration at 4 h [8]
2.7 ng/mL: concentration at 4 h [4] | concentration at 4 hr [5]
2.9 ng/mL: concentration at 2 hr [5] | concentration at 2 h [9]
2.8 ng/mL: concentration at 2 h [4] | concentration at 8 hr [5]
1.8 ng/mL: concentration at 1 h [2] | concentration at 8 h [3] | concentration at 1 hr [6] | concentration at 1 h [8] | concentration at 2 h [8]
2.5 ng/mL: concentration at 8 h [4] | concentration at 2 hr (Tyrosine propyl ester 269.5 mM)
1.7 ng/mL: concentration at 4 h [2] | concentration at 8 h [2] | concentration at 8 h [8]
2.2 ng/mL: concentration at 2 h [3] | concentration at 4 hr [6] | concentration at 2 h [7]
0.1 ng/mL: concentration at 4 h [1] | concentration at 8 h [1]
2.3 ng/mL: concentration at 2 h [10]
